Biological target: T1, USP28 (His-tagged USP28-FL-mammalian) (Homo sapiens, UniProt Q96RU2)
T1 construct: Expression of USP28 (1-1077)-TEV-6*His (pTT5 vector); made in house; host or cells: Expi293f cells (pTT5 vector)
T1 sequence (Q96RU2 1-1077): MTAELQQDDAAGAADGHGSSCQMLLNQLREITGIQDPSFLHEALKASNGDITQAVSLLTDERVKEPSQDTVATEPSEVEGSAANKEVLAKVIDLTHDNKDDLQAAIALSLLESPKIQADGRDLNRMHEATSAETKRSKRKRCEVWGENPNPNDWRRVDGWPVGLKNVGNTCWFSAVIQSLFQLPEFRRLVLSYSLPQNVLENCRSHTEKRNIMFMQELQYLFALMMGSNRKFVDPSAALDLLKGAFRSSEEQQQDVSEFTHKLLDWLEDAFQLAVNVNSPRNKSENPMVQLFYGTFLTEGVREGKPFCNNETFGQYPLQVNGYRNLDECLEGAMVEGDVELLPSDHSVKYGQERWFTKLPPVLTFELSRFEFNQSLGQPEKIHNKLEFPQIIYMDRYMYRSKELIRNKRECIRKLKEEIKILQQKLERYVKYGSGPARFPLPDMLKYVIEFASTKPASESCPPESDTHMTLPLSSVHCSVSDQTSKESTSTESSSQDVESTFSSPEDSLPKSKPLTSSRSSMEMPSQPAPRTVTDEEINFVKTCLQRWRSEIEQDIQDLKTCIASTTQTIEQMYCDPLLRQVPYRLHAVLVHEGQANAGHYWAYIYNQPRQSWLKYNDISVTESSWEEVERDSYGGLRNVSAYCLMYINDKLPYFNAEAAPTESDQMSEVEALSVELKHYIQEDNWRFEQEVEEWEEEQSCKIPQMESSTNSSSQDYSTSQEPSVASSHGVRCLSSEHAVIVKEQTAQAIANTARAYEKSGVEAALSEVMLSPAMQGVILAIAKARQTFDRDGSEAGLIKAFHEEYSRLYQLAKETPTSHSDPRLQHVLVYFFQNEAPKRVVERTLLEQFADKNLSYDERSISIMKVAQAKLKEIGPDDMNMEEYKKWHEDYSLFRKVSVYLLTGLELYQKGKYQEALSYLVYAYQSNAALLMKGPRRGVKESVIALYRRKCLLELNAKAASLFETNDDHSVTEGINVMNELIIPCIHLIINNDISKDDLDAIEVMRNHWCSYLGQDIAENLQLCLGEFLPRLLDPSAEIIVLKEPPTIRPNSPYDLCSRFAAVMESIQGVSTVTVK
Assay: Ubiquitin-Rhodamine 110 Assay for USP28 Activity, Example A-1(a)
Assay type: biochemical
Details: Ubiquitin-Rhodamine 110 assay, Example A-1(a); read-out: USP28 A-1(a) IC50 range
Procedure, shortened: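 IC50 from 4-parameter logistic fit of percent inhibition versus no-enzyme and DMSO controls; compounds 25 μM to 1.3 nM, 3-fold. Ub-Rh110 cleavage (25 nM, below Km) by […] mammalian-expressed USP28-FL-His ran 45 min at room temperature, stopped with 10 mM citric acid, read ex 485/em 535.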

Row | SMILES | IC50 [nM]
1 | CCn1ccc2cc(C(=O)N[C@H]3CCc4cc(N5C[C@H](OC)[C@@H](N)C5)cc(F)c4C3)nnc21 [Example 138, N-[(2S)-6-[(3S,4S)-3-amino-4-methoxypyrrolidin-1-yl]-8-fluoro-1,2,3,4-tetrahydronaphthalen-2-yl]-7-ethyl-7H-pyrrolo[2,3-c]pyridazine-3-carboxamide] | > 2000
2 | CCn1ccc2cc(C(=O)N[C@@H]3CCc4cc(N5C[C@H](OC)[C@@H](N)C5)cc(F)c4C3)nnc21 [Example 139, N-[(2R)-6-[(3S,4S)-3-amino-4-methoxypyrrolidin-1-yl]-8-fluoro-1,2,3,4-tetrahydronaphthalen-2-yl]-7-ethyl-7H-pyrrolo[2,3-c]pyridazine-3-carboxamide] | > 2000
3 | Cc1ccc2c(N)c(C(=O)N[C@H]3COc4cc(N5C[C@H](OC6CC6)[C@@H](N)C5)ccc4C3)sc2n1 [Example 140, 3-amino-N-[(3R)-7-[(3S,4S)-3-amino-4-cyclopropoxypyrrolidin-1-yl]-3,4-dihydro-2H-1-benzopyran-3-yl]-6-methylthieno[2,3-b]pyridine-2-carboxamide] | 1 to 50
4 | Cc1ccc2c(N)c(C(=O)N[C@H]3COc4cc(N5C[C@H](OC6CCC6)[C@@H](N)C5)ccc4C3)sc2n1 [Example 141, 3-amino-N-[(3R)-7-[(3S,4S)-3-amino-4-cyclobutoxypyrrolidin-1-yl]-3,4-dihydro-2H-1-benzopyran-3-yl]-6-methylthieno[2,3-b]pyridine-2-carboxamide] | 1 to 50
5 | CCO[C@H]1CN(c2ccc3c(n2)CC[C@H](NC(=O)c2sc4nc(C)ccc4c2N)C3)C[C@@H]1N [Example 142, 3-amino-N-[(6S)-2-[(3S,4S)-3-amino-4-ethoxypyrrolidin-1-yl]-5,6,7,8-tetrahydroquinolin-6-yl]-6-methylthieno[2,3-b]pyridine-2-carboxamide] | 200 to 2000
6 | CO[C@@H]1CN(c2ccc3c(c2)CC[C@H](NC(=O)c2sc4nc(C)ccc4c2N)C3)C[C@@H]1N [Example 143, 3-amino-N-[(2S)-6-[(3S,4R)-3-amino-4-methoxypyrrolidin-1-yl]-1,2,3,4-tetrahydronaphthalen-2-yl]-6-methylthieno[2,3-b]pyridine-2-carboxamide] | 1 to 50
7 | CO[C@@H]1CN(c2cc(F)c3c(c2)OC[C@H](NC(=O)c2sc4nc(C)ccc4c2N)C3)C[C@@H]1N [Example 145, 3-amino-N-[(3R)-7-[(3S,4R)-3-amino-4-methoxypyrrolidin-1-yl]-5-fluoro-3,4-dihydro-2H-1-benzopyran-3-yl]-6-methylthieno[2,3-b]pyridine-2-carboxamide] | 1 to 50
8 | CO[C@H]1CN(c2cc(F)c3c(c2)OC[C@H](NC(=O)c2sc4nc(C)ccc4c2N)C3)C[C@H]1N [Example 146] | 1 to 50
9 | CO[C@H]1CN(c2ccc3c(c2)OC[C@H](NC(=O)c2sc4nc(C)cnc4c2N)C3)C[C@H]1N [Example 148, 7-amino-N-[(3R)-7-[(3R,4S)-3-amino-4-methoxypyrrolidin-1-yl]-3,4-dihydro-2H-1-benzopyran-3-yl]-3-methylthieno[2,3-b]pyrazine-6-carboxamide] | 1 to 50
10 | CO[C@@H]1CN(c2ccc3c(c2)OC[C@H](NC(=O)c2sc4nc(C)sc4c2N)C3)C[C@@H]1N [Example 149, 6-amino-N-[(3R)-7-[(3S,4R)-3-amino-4-methoxypyrrolidin-1-yl]-3,4-dihydro-2H-1-benzopyran-3-yl]-2-methylthieno[2,3-d][1,3]thiazole-5-carboxamide] | 1 to 50
11 | CO[C@H]1CN(c2ccc3c(c2)OC[C@H](NC(=O)c2sc4nc(C)sc4c2N)C3)C[C@H]1N [Example 150] | 50 to 200
12 | CCO[C@@H]1CN(c2ccc3c(c2)OC[C@H](NC(=O)c2sc4nc(C)ccc4c2N)C3)C[C@@H]1N [Example 151, 3-amino-N-[(3R)-7-[(3S,4R)-3-amino-4-ethoxypyrrolidin-1-yl]-3,4-dihydro-2H-1-benzopyran-3-yl]-6-methylthieno[2,3-b]pyridine-2-carboxamide] | 1 to 50
13 | CCO[C@H]1CN(c2ccc3c(c2)OC[C@H](NC(=O)c2sc4nc(C)ccc4c2N)C3)C[C@H]1N [Example 152] | 1 to 50
14 | Cc1ccc2c(N)c(C(=O)N[C@H]3COc4cc(N5C[C@@H]6NCCO[C@@H]6C5)ccc4C3)sc2n1 [Example 153, N-[(3R)-7-[(4aS,7aR)-octahydropyrrolo[3,4-b]morpholin-6-yl]-3,4-dihydro-2H-1-benzopyran-3-yl]-3-amino-6-methylthieno[2,3-b]pyridine-2-carboxamide] | 50 to 200
15 | Cc1ccc2c(N)c(C(=O)N[C@H]3COc4cc(N5C[C@@H]6OCCN[C@@H]6C5)ccc4C3)sc2n1 [Example 154, N-[(3R)-7-[(4aR,7aS)-octahydropyrrolo[3,4-b]morpholin-6-yl]-3,4-dihydro-2H-1-benzopyran-3-yl]-3-amino-6-methylthieno[2,3-b]pyridine-2-carboxamide] | 50 to 200
16 | COC[C@@H]1CNCCN1c1ccc2c(c1)OC[C@H](NC(=O)c1sc3nc(C)ccc3c1N)C2 [Example 155, 3-amino-N-[(3R)-7-[(2S)-2-(methoxymethyl)piperazin-1-yl]-3,4-dihydro-2H-1-benzopyran-3-yl]-6-methylthieno[2,3-b]pyridine-2-carboxamide] | 1 to 50
17 | COC[C@H]1CNCCN1c1ccc2c(c1)OC[C@H](NC(=O)c1sc3nc(C)ccc3c1N)C2 [Example 156, 3-amino-N-[(3R)-7-[(21)-2-(methoxymethyl)piperazin-1-yl]-3,4-dihydro-2H-1-benzopyran-3-yl]-6-methylthieno[2,3-b]pyridine-2-carboxamide] | 50 to 200
18 | COC[C@H]1CN(c2ccc3c(c2)OC[C@H](NC(=O)c2sc4nc(C)ccc4c2N)C3)CCN1 [Example 157, 3-amino-N-[(3R)-7-[(3R)-3-(methoxymethyl)piperazin-1-yl]-3,4-dihydro-2H-1-benzopyran-3-yl]-6-methylthieno[2,3-b]pyridine-2-carboxamide] | 1 to 50
19 | COC[C@@H]1CN(c2ccc3c(c2)OC[C@H](NC(=O)c2sc4nc(C)ccc4c2N)C3)CCN1 [Example 158, 3-amino-N-[(3R)-7-[(3S)-3-(methoxymethyl)piperazin-1-yl]-3,4-dihydro-2H-1-benzopyran-3-yl]-6-methylthieno[2,3-b]pyridine-2-carboxamide] | 50 to 200
20 | Cc1cc(C)c2c(N)c(C(=O)N[C@H]3COc4cc(N5CCNCC5)c(F)c(F)c4C3)sc2n1 [Example 159, 3-amino-N-[(3R)-5,6-difluoro-7-(piperazin-1-yl)-3,4-dihydro-2H-1-benzopyran-3-yl]-4,6-dimethylthieno[2,3-b]pyridine-2-carboxamide] | > 2000
21 | Cc1cc(C)c2c(N)c(C(=O)N[C@@H]3COc4cc(N5CCNCC5)c(F)c(F)c4C3)sc2n1 [Example 160, 3-amino-N-[(3S)-5,6-difluoro-7-(piperazin-1-yl)-3,4-dihydro-2H-1-benzopyran-3-yl]-4,6-dimethylthieno[2,3-b]pyridine-2-carboxamide] | 1 to 50
22 | COC[C@@H]1CN(c2ccc3c(c2)OC[C@H](NC(=O)c2sc4nc(C)ccc4c2N)C3)C[C@@H]1N [Example 161, 3-amino-N-[(3R)-7-[(3R,4R)-3-amino-4(methoxymethyl)pyrrolidin-1-yl]-3,4-dihydro-2H-1-benzopyran-3-yl]-6-methylthieno[2,3-b]pyridine-2-carboxamide] | 1 to 50
23 | COC[C@H]1CN(c2ccc3c(c2)OC[C@H](NC(=O)c2sc4nc(C)ccc4c2N)C3)C[C@H]1N [Example 162, 3-amino-N-[(3R)-7-[(3S,4S)-3-amino-4-(methoxymethyl)pyrrolidin-1-yl]-3,4-dihydro-2H-1-benzopyran-3-yl]-6-methylthieno[2,3-b]pyridine-2-carboxamide] | 1 to 50
24 | COC[C@@H]1CN(c2ccc3c(c2)OC[C@H](NC(=O)c2sc4nc(C)ccc4c2N)C3)C[C@H]1N [Example 163, 3-amino-N-[(3R)-7-[(3S,4R)-3-amino-4-(methoxymethyl)pyrrolidin-1-yl]-3,4-dihydro-2H-1-benzopyran-3-yl]-6-methylthieno[2,3-b]pyridine-2-carboxamide] | 1 to 50
